Experimental data reported in patent publication US20250163057A1, “DCN-1 MODULATING COMPOUNDS AND METHODS OF USE THEREOF” (Cellarity, Inc., priority 2023, published 2025).
Where two headings read alike, the source gives them in different places.

Assays:
[1] = test system: Cullin-3 (CUL3) neddylation; assay: AlphaLISA assay for Cullin-3 (CUL3) neddylation in TF 1 cells; assay type: cell-based; conditions: Homo sapiens, 3 hours treatment
Method in brief: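 TF 1 cells in unsupplemented IMDM treated with compound concentrations for 3 h, then lysed. CUL3 neddylation detected by AlphaLISA (biotinylated anti-NEDD8, anti-CUL3 acceptor beads overnight, streptavidin donor beads 1 h); normalized to vehicle (0%) and 1 μM DI-1548 (100%), IC50 from Hill fits.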

[2] = biological target: DCN1 (DCUND1) protein PONY domain (Homo sapiens (Human), UniProt Q96GG9); assay: TR-FRET assay, DCN1 binding with FAM-labeled probe
Method in brief: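 First, the E. coli-derived PONY domain was biotinylated and paired with streptavidin Tb cryptate. Compounds in 0.1% DMSO were then added to DCN1 and FAM-probe (5 nM/20 nM, or 0.31 nM/900 nM total with 800 nM unlabelled) in TritonX, 200 mM NaCl buffer. Finally, TR-FRET ratios were recorded at 1, 5 and 24 hrs.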

[3] = 24 hr after treatment with compound, read-out: TR FRET IC50 24 hr
[4] = TR FRET IC50 1 hr (nM), 1 hr after treatment with compound
[5] = read-out: TR FRET IC50 1 hr, 1 hr after treatment with compound

DCN1 (DCUND1) protein PONY domain, sequence (Q96GG9 60-248): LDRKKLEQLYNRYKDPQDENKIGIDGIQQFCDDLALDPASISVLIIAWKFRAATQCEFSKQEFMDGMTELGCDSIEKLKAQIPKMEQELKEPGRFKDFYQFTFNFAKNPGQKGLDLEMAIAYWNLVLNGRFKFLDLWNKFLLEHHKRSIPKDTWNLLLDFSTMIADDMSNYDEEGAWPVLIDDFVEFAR

Row | SMILES | IC50 ([1]; TF-1, 3 h) [nM] | IC50 [2, 3] [nM] | IC50 [2, 4] [nM] | IC50 [1] [nM] | IC50 [2, 5] [nM]
1 | CCN1C(=O)[C@@H](NC(=O)c2cccc(C(F)(F)F)c2)[C@@H](c2ccc(F)cc2)c2c([C@@H](C)NC(N)=O)nn(-c3ccccc3)c21 [Compound I-499, N-((4S,5S)-7-ethyl-4-(4-fluorophenyl)-6-oxo-1-phenyl-3-((R)-1-ureidoethyl)-4,5,6,7-tetrahydro-1H-pyrazolo[3,4-b]pyridin-5-yl)-3-(trifluoromethyl)benzamide] | 100 to 1000 | 1000 to 3000 | 1000 to 3000 |  | 
2 | CCN1C(=O)[C@@H](NC(=O)c2cccc(C(F)(F)F)c2)[C@@H](C2CC2)c2c(C(=O)N3C[C@@H](NC)C[C@H]3C#N)nn(C3CCOCC3)c21 [Compound I-503, N-((4S,5S)-3-((2S,4S)-2-cyano-4-(methylamino)pyrrolidine-1-carbonyl)-4-cyclopropyl-7-ethyl-6-oxo-1-(tetrahydro-2H-pyran-4-yl)-4,5,6,7-tetrahydro-1H-pyrazolo[3,4-b]pyridin-5-yl)-3-(trifluoromethyl)benzamide] | > 1000 | 200 to 1000 | 1000 to 3000 |  | 
3 | CCN1C(=O)[C@@H](NC(=O)c2cnc(C)cc2Cl)[C@@H](C2CC2)c2c(C(=O)N3[C@H](C#N)C[C@H]4C[C@H]43)nn(C3CCOCC3)c21 [Compound I-506] | > 1000 | 1000 to 3000 | 1000 to 3000 |  | 
4 | CCN1C(=O)[C@@H](NC(=O)c2cccc(C(F)(F)F)c2F)[C@@H](C2CC2)c2c(C(=O)N3[C@H](C#N)C[C@H]4C[C@H]43)nn(C3CCOCC3)c21 [Compound I-514] |  | ≤ 200 |  | ≤ 100 | ≤ 200
5 | CCN1C(=O)[C@@H](NC(=O)c2cccc(C(F)(F)F)c2)[C@@H](C2CCC2)c2c(C(=O)N(CC#N)C3CC3)nn(C3CCOCC3)c21 [Compound I-515] | 100 to 1000 | ≤ 200 | 200 to 1000 |  | 
6 | CCN1C(=O)[C@@](C)(NC(=O)c2cccc(C(F)(F)F)c2)[C@@H](C2CC2)c2c(C(=O)N3[C@H](C#N)C[C@H]4C[C@H]43)nn(C3CCOCC3)c21 [Compound I-516, N-((4S,5S)-3-((1R,3S,5R)-3-cyano-2-azabicyclo[3.1.0]hexane-2-carbonyl)-4-cyclopropyl-7-ethyl-5-methyl-6-oxo-1-(tetrahydro-2H-pyran-4-yl)-4,5,6,7-tetrahydro-1H-pyrazolo[3,4-b]pyridin-5-yl)-3-(trifluoromethyl)benzamide] | ≤ 100 | ≤ 200 |  |  | ≤ 200
7 | CCN1C(=O)[C@@H](NC(=O)c2cccc(C(F)(F)F)c2)[C@@H](C2CC2)c2c(C(=O)N3CS(=O)(=O)C[C@H]3C#N)nn(-c3ccccc3)c21 [Compound I-519] | ≤ 100 | ≤ 200 |  |  | ≤ 200
8 | CCN1C(=O)[C@@H](NC(=O)c2cccc(C(F)(F)F)c2)[C@@H](C2CC2)c2c(C(=O)N3CS(=O)(=O)C[C@@H]3C#N)nn(-c3ccccc3)c21 [Compound I-521] | ≤ 100 | ≤ 200 | 1000 to 3000 |  | 
9 | CCN1C(=O)[C@H](NC(=O)c2cccc(C(F)(F)F)c2)[C@@H](c2ccc(F)cc2)c2c(COCC#N)nn(-c3ccccc3)c21 [Compound I-522] | > 1000 | 1000 to 3000 | 1000 to 3000 |  | 
10 | CCN1C(=O)[C@@H](NC(=O)c2cccc(C(F)(F)F)c2)[C@@H](C2CCCC2)c2c(C(=O)N(C)[C@H](C)C#N)nn(C3CCOCC3)c21 [Compound I-524] | ≤ 100 | ≤ 200 | 200 to 1000 |  | 
11 | CCN1C(=O)[C@H](NC(=O)c2cccc(C(F)(F)F)c2)[C@H](c2ccc(F)cn2)c2c([C@@H](C)NC#N)nn(-c3ccccc3)c21 [Compound I-525] | > 1000 | 1000 to 3000 | 1000 to 3000 |  | 
12 | CCN1C(=O)[C@@H](NC(=O)c2ccc3ccoc3c2)[C@@H](C2CC2)c2c(C(=O)N3[C@H](C#N)C[C@H]4C[C@H]43)nn(C3CCOCC3)c21 [Compound I-526] |  | ≤ 200 |  | ≤ 100 | ≤ 200
13 | CCN1C(=O)[C@@H](NC(=O)c2cccc3cccnc23)[C@@H](C2CC2)c2c(C(=O)N3[C@H](C#N)C[C@H]4C[C@H]43)nn(C3CCOCC3)c21 [Compound I-527] | 100 to 1000 | ≤ 200 | 200 to 1000 |  | 
14 | CCN1C(=O)[C@@H](NC(=O)c2cccc(C(F)(F)F)c2)[C@@H](c2ccc(F)cc2)c2c([C@H](C)NC#N)nn(-c3ccccc3)c21 [Compound I-530] | ≤ 100 | ≤ 200 | 200 to 1000 |  | 
15 | C=CC(=O)N[C@H](C)c1nn(-c2ccccc2)c2c1[C@@H](c1ccc(F)cc1)[C@H](NC(=O)c1nccc(C(F)(F)F)n1)C(=O)N2CC [Compound I-533] | 100 to 1000 | 200 to 1000 | 200 to 1000 |  | 
16 | CCN1C(=O)[C@H](NC(=O)c2cccc(C(F)(F)F)c2)[C@H](c2ccc(F)cc2)c2c(C(=O)N3CCNC[C@@H]3C#N)nn(-c3ccccc3)c21 [Compound I-534] | > 1000 | 1000 to 3000 | 1000 to 3000 |  | 

Row | SMILES | IC50 ([1]; TF-1, 3 h) [nM] | IC50 [2, 3] [nM] | IC50 [2, 4] [nM] | IC50 [1] [nM] | IC50 [2, 5] [nM]
17 | CCN1C(=O)[C@H](NC(=O)c2cccc(C(F)(F)F)c2)[C@H](c2ccc(F)cc2)c2c(C(=O)N3CC[C@H]3C#N)nn(-c3ccccc3)c21 [Compound I-535] | > 1000 | 1000 to 3000 | 1000 to 3000 |  | 
18 | CCN1C(=O)[C@@H](NC(=O)c2cccc(C(F)(F)F)c2)[C@@H](c2ccc(F)cc2)c2c([C@@H](C)N(C#N)C(=O)OCCN3CCN(C)CC3)nn(-c3ccccc3)c21 [Compound I-536] | 100 to 1000 | ≤ 200 |  |  | ≤ 200
19 | CCN1C(=O)[C@@H](NC(=O)c2cccc(C(F)(F)F)c2)[C@@H](c2ccc(F)cc2)c2c(CCN(C#N)CCO)nn(-c3ccccc3)c21 [Compound I-538] | 100 to 1000 | ≤ 200 | 200 to 1000 |  | 
20 | CCN1C(=O)[C@@](C)(NC(=O)c2cccc(C(F)(F)F)c2)[C@@H](c2ccc(F)cc2)c2c([C@@H](C)NC#N)nn(-c3ccccc3)c21 [Compound I-539] | ≤ 100 | ≤ 200 |  |  | ≤ 200
21 | CCN1C(=O)[C@H](NC(=O)c2cccc(C(F)(F)F)c2)[C@H](c2ccc(F)cc2)c2c(C(=O)N3CCOC[C@H]3C#N)nn(-c3ccccc3)c21 [Compound I-540] | > 1000 | 1000 to 3000 | 1000 to 3000 |  | 
22 | CCN1C(=O)[C@H](NC(=O)c2cccc(C(F)(F)F)c2)[C@H](c2ccc(F)cc2)c2c(C(=O)N3[C@H](C#N)C[C@H]4C[C@H]43)nn(-c3ccccc3)c21 [Compound I-541] | > 1000 | 1000 to 3000 | 1000 to 3000 |  | 
23 | CCN1C(=O)[C@@H](NC(=O)c2cccc(C(F)(F)F)c2)[C@@H](c2ccc(F)cc2)c2c(CN(CC#N)C(C)=O)nn(-c3ccccc3)c21 [Compound I-542, N-((4S,5S)-3-((N-(cyanomethyl)acetamido)methyl)-7-ethyl-4-(4-fluorophenyl)-6-oxo-1-phenyl-4,5,6,7-tetrahydro-1H-pyrazolo[3,4-b]pyridin-5-yl)-3-(trifluoromethyl)benzamide] | 100 to 1000 | 200 to 1000 | 1000 to 3000 |  | 
24 | CCN1C(=O)[C@H](NC(=O)c2cccc(C(F)(F)F)c2)[C@H](c2ccc(F)cc2)c2c(C(=O)N3CCC[C@H]3C#N)nn(-c3cccc(OCCCN4CCOCC4)c3)c21 [Compound I-544] | > 1000 | 1000 to 3000 | 1000 to 3000 |  | 
25 | CCN1C(=O)[C@@H](NC(=O)[C@@H]2CCc3nccc(=O)n32)[C@@H](C2CC2)c2c(C(=O)N3[C@H](C#N)C[C@H]4C[C@H]43)nn(C3CCOCC3)c21 [Compound I-548] | > 1000 | 1000 to 3000 | 1000 to 3000 |  | 
26 | CCN1C(=O)[C@@H](NC(=O)c2cccc(C(F)(F)F)c2)[C@@H](C2CC2)c2c(C(=O)N(C)[C@@H](C)C#N)nn(C3CCOCC3)c21 [Compound I-549, (4S,5S)—N—((S)-1-cyanoethyl)-4-cyclopropyl-7-ethyl-N-methyl-6-oxo-1-(tetrahydro-2H-pyran-4-yl)-5-(3-(trifluoromethyl)benzamido)-4,5,6,7-tetrahydro-1H-pyrazolo[3,4-b]pyridine-3-carboxamide] | ≤ 100 | ≤ 200 | 200 to 1000 |  | 
27 | CCN1C(=O)[C@@H](NC(=O)c2cccc(C(F)(F)F)c2)[C@@H](C2CC2)c2c(C(=O)N(C)[C@@H](C#N)CCN(C)C)nn(C3CCOCC3)c21 [Compound I-550] | ≤ 100 | ≤ 200 |  |  | ≤ 200
28 | CCN1C(=O)[C@@H](NC(=O)c2cccc(C(F)(F)F)c2)[C@@H](C2CC2)c2c(C(=O)N3CCOC[C@@H]3C#N)nn(C3CCOCC3)c21 [Compound I-551] | 100 to 1000 | 200 to 1000 | 200 to 1000 |  | 
29 | CCN1C(=O)[C@H](NC(=O)c2cccc(C(F)(F)F)c2)[C@H](C2CC2)c2c(C(=O)N(CC#N)C3CC3)nn(-c3ccccc3)c21 [Compound I-557] | > 1000 | 1000 to 3000 | 1000 to 3000 |  | 
30 | CCN1C(=O)[C@H](NC(=O)c2cccc(C(F)(F)F)c2)[C@H](c2ccc(F)cc2)c2c(C(=O)N3CCC[C@H]3C#N)nn(C3CC3)c21 [Compound I-558] | > 1000 | 1000 to 3000 | 1000 to 3000 |  | 
31 | CCN1C(=O)[C@@H](NC(=O)c2cccc(C(F)(F)F)c2)[C@@H](C2CCCC2)c2c(C(=O)N(C)[C@@H](C)C#N)nn(C3CCOCC3)c21 [Compound I-559] | ≤ 100 | ≤ 200 | 200 to 1000 |  | 
32 | CCN1C(=O)[C@@H](NC(=O)c2cccc(C(F)(F)F)c2)[C@@H](C2CC2)c2c(C(=O)N3CC[C@H]3C#N)nn(-c3ccccc3)c21 [Compound I-561] | ≤ 100 | ≤ 200 | 1000 to 3000 |  | 
